Results taken from PubChem BioAssay (NCI).
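Cultured in 96-well plates, cells were exposed to test compound for 48 hours across five concentrations. Here, GI50 denotes the concentration required for 50% inhibition of growth. TGI: total growth inhibition.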

Legend:
Test in all cases: NCI tumour cell line growth inhibition, 48 h
[1] = system: 786-0 renal
[2] = system: A498 renal
[3] = system: COLO 205 colon
[4] = system: HL-60(TB) leukemia
[5] = system: MOLT-4 leukemia
[6] = system: OVCAR-3 ovarian
[7] = system: SK-MEL-2 melanoma
[8] = system: UACC-257 melanoma
[9] = system: CAKI-1 renal
[10] = system: SK-OV-3 ovarian

SMILES | TGI [1] | TGI [2] | TGI [3] | TGI [4] | TGI [5] | TGI [6] | TGI [7] | TGI [8] | TGI [9] | TGI [10] | GI50 [1] | GI50 [9] | GI50 [3] | GI50 [4] | GI50 [5] | GI50 [6] | GI50 [7] | GI50 [10] | GI50 [8] | GI50 [2]
CCOC(=O)C1SC(=Nc2cccc(Cl)c2C)N=C1C (stereo not drawn) | 31.8 µM | > 100 µM | 38.3 µM | 46.8 µM | 78.8 µM | 42.5 µM | 37 µM | > 10 µM |  |  |  |  |  |  |  |  |  |  |  | 
CCN(CC)CC(C)(C)C(=O)/C=C/c1cccc(/C=C/C(=O)C(C)(C)CN(CC)CC)c1 | 1.87 µM | 2.71 µM | 0.821 µM |  | 0.901 µM | 2.31 µM |  | 2.66 µM | 0.965 µM | 2.79 µM |  |  |  |  |  |  |  |  |  | 
OC(c1cc(-c2cccc(Cl)c2)nc2ccccc12)C1CCCCN1 (stereo not drawn) | 3.47 µM |  | 3.7 µM | 4.22 µM | 4.14 µM | 3.21 µM | 4.02 µM | 3.33 µM | 2.72 µM | 12.2 µM | 1.84 µM | 1.24 µM | 1.98 µM | 1.72 µM | 1.6 µM | 1.81 µM | 2.18 µM | 3.54 µM | 1.85 µM | 
O=C1/C(=C\c2ccc(F)cc2)CN(C(=O)c2ccccc2)C/C1=C\c1ccc(F)cc1 | 4.25 µM |  | 10 µM | > 100 µM | 72.5 µM |  | 19.5 µM | 8.52 µM | 66.2 µM | 19.5 µM | 1.83 µM | 2.82 µM | 3.15 µM | 3.56 µM | 2.56 µM |  | 4.44 µM | 5.95 µM | 2.41 µM | 
CC[C@H](NC(=O)[C@H]1CCCCN1C)C(=O)N(C)[C@H](C[C@@H](OC(C)=O)c1nc(C(=O)N[C@@H](Cc2ccccc2)C[C@H](C)C(=O)O)cs1)C(C)C | > 14.3 µM |  | 0.0499 µM | 0.019 µM | > 14.3 µM | 0.0286 µM | > 14.3 µM | > 14.3 µM | > 14.3 µM | > 14.3 µM | 0.00868 µM | 0.00602 µM | 0.00396 µM | 0.00433 µM | 0.0106 µM | < 0.00143 µM | 0.00145 µM | 0.00383 µM | > 14.3 µM | 
COc1ccc(C(CCC(C)=O)C(=O)O)cc1OC (stereo not drawn) | > 100 µM | > 100 µM | > 100 µM |  |  | > 100 µM | > 100 µM | > 100 µM | > 100 µM |  |  |  |  |  |  |  |  |  |  | 
C=CCC(N[C@@H](CO)c1ccccc1)c1cn(Cc2ccccc2Cl)c(=O)n(Cc2ccccc2Cl)c1=O (stereo partly drawn) | > 100 µM | > 100 µM | > 100 µM | > 100 µM |  | > 100 µM | > 100 µM | > 100 µM | > 100 µM | > 100 µM | > 100 µM | 73.6 µM | > 100 µM | 93.2 µM |  | > 100 µM | > 100 µM | > 100 µM | > 100 µM | 13.5 µM
Nc1ccccc1NC(=O)c1ccc(CNc2nccc(-c3cccnc3)n2)cc1 | > 47.9 µM |  | 2.06 µM | 2.43 µM | > 23.2 µM | 4.62 µM | 3.71 µM |  |  | > 28.7 µM | 2.15 µM | 0.323 µM | 0.626 µM | 0.424 µM | 0.643 µM | 1.33 µM | 0.481 µM | 1.37 µM | 0.73 µM | 
C=CC(=O)NCCSCCCOC1(C(=O)O)CC(O)C(NC(C)=O)C(C(O)C(O)CO)O1 (stereo not drawn) | > 100 µM |  | > 100 µM | > 100 µM | > 100 µM | > 100 µM | > 100 µM | > 100 µM |  | > 100 µM |  |  |  |  |  |  |  |  |  | 
CCOC(=O)C1=C(C)N=c2s/c(=C\c3ccccc3O)c(=O)n2C1c1ccc(OC)c2ccccc12 (stereo not drawn) | 10.3 µM |  | > 100 µM | > 100 µM | > 100 µM | 7.83 µM | 87.1 µM | > 100 µM | 25.9 µM | 27 µM | 2.59 µM | 10 µM | 30.8 µM | 38.6 µM | 15.5 µM | 3.04 µM | 32.3 µM | 14 µM | 31.8 µM | 
c1ccc([CH2][Sn]([CH2]c2ccccc2)([O]c2cccc3cccnc23)[O]c2cccc3cccnc23)cc1 | 0.385 µM | 0.692 µM | 0.477 µM | > 100 µM |  | 0.949 µM | 1.77 µM | 0.836 µM | 2.2 µM | 1.57 µM | 0.155 µM | 0.92 µM | 0.194 µM | 0.314 µM |  | 0.3 µM | 0.511 µM | 0.492 µM | 0.302 µM | 0.429 µM
Cc1cc([N+](=O)[O-])ccc1NC(=O)C(=O)C(C(=O)c1ccccc1-c1ccccc1)C1OC(=O)c2ccccc21 (stereo not drawn) | 32.5 µM |  | 41.8 µM |  | 72.2 µM |  | 29.2 µM | 86.5 µM | 59.5 µM | 65.6 µM |  |  |  |  |  |  |  |  |  | 
COc1ccc(/C=C(/C(=O)N2CCN(c3ccccc3)CC2)c2cc(OC)c(OC)c(OC)c2)cc1N | > 100 µM | 0.778 µM | 2.43 µM | 0.596 µM | > 100 µM | > 100 µM | > 100 µM | > 100 µM |  | > 100 µM | 0.766 µM |  | 0.362 µM | 0.241 µM | 0.524 µM | 0.366 µM | 0.725 µM | 0.472 µM | 3.65 µM | 0.142 µM
CCC(CC)c1nc(Nc2ccc(C(=O)OC)cc2)c2ccccc2n1 | 26.5 µM |  | 15 µM | 26 µM | 3.67 µM | 21 µM | 20 µM | 20 µM | 11.8 µM | 19 µM | 10.9 µM | 5.74 µM | 8.2 µM | 8.17 µM | 1.41 µM | 5.7 µM | 9.39 µM | 9.54 µM | 9.73 µM | 
COC(=O)[C@@H](C)C[C@H](Cc1cn(C)c2ccccc12)NC(=O)c1csc([C@@H](C[C@H](C(C)C)N(C)C(=O)[C@@H](NC(=O)[C@H]2CCCCN2C)C(C)C)OC(C)=O)n1 | > 13 µM | 1.12 µM | 0.0859 µM | 0.0194 µM | > 16.7 µM |  | > 16.7 µM | > 16.7 µM |  | > 16.7 µM | 0.0545 µM |  | 0.00788 µM | 0.00469 µM | 0.013 µM | 0.0051 µM | 0.0115 µM | 0.0602 µM | > 16.7 µM | 0.0456 µM
